For one series, the target named is T1, human adenosine A2A receptor (Homo sapiens, UniProt P29274).
T1 construct: expressed in transfected cells; host or cells: CHO cells, semliki forest virus expression system; membrane preparation
T1 sequence (P29274 whole entry): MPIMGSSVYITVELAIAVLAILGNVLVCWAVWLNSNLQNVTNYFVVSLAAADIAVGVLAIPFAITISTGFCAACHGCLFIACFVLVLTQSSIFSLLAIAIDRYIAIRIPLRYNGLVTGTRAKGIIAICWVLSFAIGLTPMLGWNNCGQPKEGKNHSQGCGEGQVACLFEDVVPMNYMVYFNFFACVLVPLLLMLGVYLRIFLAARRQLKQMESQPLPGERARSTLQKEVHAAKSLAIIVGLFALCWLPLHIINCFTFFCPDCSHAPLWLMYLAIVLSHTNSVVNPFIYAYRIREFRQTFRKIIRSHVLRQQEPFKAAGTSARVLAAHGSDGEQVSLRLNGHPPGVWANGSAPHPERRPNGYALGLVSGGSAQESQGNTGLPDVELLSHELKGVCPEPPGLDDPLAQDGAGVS
The series is described as follows: [3H]-SCH-58261 binding assay, human adenosine A2A receptor expressed in CHO cell membranes (SPA). Particulars: [3H]-SCH-58261 (1 nM) displacement; recombinant receptor in CHO cell membranes; Ki by Cheng-Prussoff from IC50; read-out: hA2 (pKi) (converted). As for the experimental part:
Human Adenosine A2A Receptor
The human adenosine A2A receptor was recombinantly expressed in chinese hamster ovary (CHO) cells using the semliki forest virus expression system. Cells were harvested, washed twice by centrifugation, homogenised and again washed by centrifugation. The final washed membrane pellet was suspended in a Tris (50 mM) buffer containing 120 mM NaCl, 5 mM KCl, 2 mM CaCl2 and 10 mM MgCl2 (pH 7.4) (buffer A). The [^3H]-SCH-58261 (Dionisotti et al., 1997, Br J Pharmacol 121, 353; 1 nM) binding assay was carried out in 96-well plates in the presence of 2.5 μg of membrane protein, 0.5 mg of Ysi-poly-1-lysine SPA beads and 0.1 U adenosine deaminase in a final volume of 200 μl of buffer A. Non-specific binding was defined using xanthine amine congener (XAC; 2 μM). Compounds were tested at 10 concentrations from 10 μM −0.3 nM. All assays were conducted in duplicate and repeated at least two times. Assay plates were incubated for 1 hour at room temperature before centrifugation and then bound ligand determined using a Packard Topcount scintillation counter. IC50 values were calculated using a non-linear curve fitting program and Ki values calculated using the Cheng-Prussoff equation.
`COCC(=O)NCc1ccc(C(=O)Nc2nc3c(OC)ccc(N4CCOCC4)c3s2)cc1` [Example 1, 4-[(2-Methoxy-acetylamino)-methyl]-N-(4-methoxy-7-morpholin-4-yl-benzothiazol-2-yl)-benzamide]: the Ki was 0.794 nM.

As for `COCC(=O)N(C)Cc1ccc(C(=O)Nc2nc3c(OC)ccc(N4CCOCC4)c3s2)cc1` [Example 2, 4-[(Methoxyacetyl-methyl-amino)-methyl]-N-(4-methoxy-7-morpholin-4-yl-benzothiazol-2-yl)-benzamide], the Ki is 1.26 nM. Same read-out and setting: the figure for `COc1ccc(N2CCOCC2)c2sc(NC(=O)c3ccc(CN(C)C(=O)C4CC4)cc3)nc12` [Example 4, 4-[(Cyclopropanecarbonyl-methyl-amino)-methyl]-N-(4-methoxy-7-morpholin-4-yl-benzothiazol-2-yl)-benzamide] is 0.631 nM.

`COc1ccc(N2CCOCC2)c2sc(NC(=O)c3ccc(CN(C)C(=O)C4CCC4)cc3)nc12` [Example 5, 4-[(Cyclobutanecarbonyl-methyl-amino)-methyl]-N-(4-methoxy-7-morpholin-4-yl-benzothiazol-2-yl)-benzamide]: the Ki was 0.794 nM. Same read-out and setting: the figure for `CCC(=O)N(C)Cc1ccc(C(=O)Nc2nc3c(OC)ccc(N4CCOCC4)c3s2)cc1` [Example 6, N-(4-Methoxy-7-morpholin-4-yl-benzothiazol-2-yl)-4-[(methyl-propionyl-amino)-methyl]-benzamide] is 0.631 nM. Still for that read-out and setting: in the case of `CCC(=O)NCc1ccc(C(=O)Nc2nc3c(OC)ccc(N4CCOCC4)c3s2)cc1` [Example 7, N-(4-Methoxy-7-morpholin-4-yl-benzothiazol-2-yl)-4-(propionylamino-methyl)-benzamide] it was 1 nM.

In the case of `COc1ccc(N2CCOCC2)c2sc(NC(=O)c3ccc(CNC(=O)C4CC4)cc3)nc12` [Example 9, 4-[(Cyclopropanecarbonyl-amino)-methyl]-N-(4-methoxy-7-morpholin-4-yl-benzothiazol-2-yl)-benzamide], the Ki was 1 nM. Regarding `COc1ccc(N2CCOCC2)c2sc(NC(=O)c3ccc(CN(C)C(C)=O)cc3)nc12` [Example 10, 4-[(Acetyl-methyl-amino)-methyl]-N-(4-methoxy-7-morpholin-4-yl-benzothiazol-2-yl)-benzamide], the Ki was 1 nM. `COc1ccc(N2CCOCC2)c2sc(NC(=O)c3ccc(CNC(=O)C4CCC4)cc3)nc12` [Example 11, 4-[(Cyclobutanecarbonyl-amino)-methyl]-N-(4-methoxy-7-morpholin-4-yl-benzothiazol-2-yl)-benzamide]: the Ki is 0.501 nM.

On to `COc1ccc(N2CCOCC2)c2sc(NC(=O)c3ccc(CNC(C)=O)cc3)nc12` [Example 12, 4-(Acetylamino-methyl)-N-(4-methoxy-7-morpholin-4-yl-benzothiazol-2-yl)-benzamide], for which the Ki is 0.794 nM. Still for that read-out and setting: the figure for `CCC(=O)N(CC)Cc1ccc(C(=O)Nc2nc3c(OC)ccc(N4CCOCC4)c3s2)cc1` [Example 14, 4-[(Ethyl-propionyl-amino)-methyl]-N-(4-methoxy-7-morpholin-4-yl-benzothiazol-2-yl)-benzamide] is 1.26 nM; for `COc1ccc(N2CCOCC2)c2sc(NC(=O)c3ccc(CN(C)C(=O)CN(C)C)cc3)nc12` [Example 15, 4-[(Dimethylaminoacetyl-methyl-amino)-methyl]-N-(4-methoxy-7-morpholin-4-yl-benzothiazol-2-yl)-benzamide] it is 1.26 nM.

Consider `COc1ccc(N2CCOCC2)c2sc(NC(=O)c3ccc(CN(C)C(=O)CN4CCCC4)cc3)nc12` [Example 19, N-(4-Methoxy-7-morpholin-4-yl-benzothiazol-2-yl)-4-{[methyl-(pyrrolidin-1-yl-acetyl)-amino]-methyl}-benzamide], for which the Ki is 1.58 nM.

System in another series: not given
Test: not given
Settings: not given
One may read the melting point as the temperature, or range, at which the solid turns liquid. Turning to `COCCN(C)CC(=O)N(C)Cc1ccc(C(=O)Nc2nc3c(OC)ccc(N4CCOCC4)c3s2)cc1` [Example 18, 4-[({[(2-Methoxy-ethyl)-methyl-amino]-acetyl}-methyl-amino)-methyl]-N-(4-methoxy-7-morpholin-4-yl-benzothiazol-2-yl)-benzamide], the melting point lay in the range of 171 to 173 °C. Same read-out and setting: the figure for `COc1ccc(N2CCOCC2)c2sc(NC(=O)c3ccc(CN(C)C(=O)CN4CCCC4)cc3)nc12` [Example 19, N-(4-Methoxy-7-morpholin-4-yl-benzothiazol-2-yl)-4-{[methyl-(pyrrolidin-1-yl-acetyl)-amino]-methyl}-benzamide] is 114 to 116 °C.
